# Data: patent US20250049679A1, “FORMULATIONS OF ERIODICTYOL” (DEBUT BIOTECHNOLOGY, INC., priority 2023, published 2025)
# Entries after “also recorded” stand apart in the source; their conditions may differ.
# Key:
# [1] = Solubility of eriodictyol in solvents; type: physicochemical
# [2] = Stability of eriodictyol in dimethyl isosorbide; type: physicochemical
# Description: Thus, the compositions of the invention will also be stable for storage for at least 2 years under ambient conditions.
# [3] = ABTS antioxidant assay (aqueous medium); type: biochemical; settings: for % Radical Inhibition: ABTS
# Description: ABTS+ solution is generated as a free radical and used to measure relative ability of a compound to scavenge free radicals. Reduction of the absorbance at 734 nm was standardized to solvent control as an indication of ABTS+ scavenging.
# [4] = DPPH antioxidant activity assay (organic medium); type: biochemical; settings: for % Radical Inhibition: DPPH
# Description: The 2,2-diphenyl-1-picrylhydrazyl (DPPH) antioxidant assay is designed to evaluate the antioxidant activity of compositions comprising eriodictyol in an organic medium. […] In the presence of an antioxidant DPPH is reduced, resulting in the formation of a colorless solution. Reduction of absorbance at 517 nm is standardized to solvent control as an indication of DPPH scavenging.
# [5] = biological target: T1, human neutrophil elastase (Homo sapiens, UniProt P08246); assay: Elastase enzyme inhibition; type: biochemical
# T1 sequence (P08246 30-267): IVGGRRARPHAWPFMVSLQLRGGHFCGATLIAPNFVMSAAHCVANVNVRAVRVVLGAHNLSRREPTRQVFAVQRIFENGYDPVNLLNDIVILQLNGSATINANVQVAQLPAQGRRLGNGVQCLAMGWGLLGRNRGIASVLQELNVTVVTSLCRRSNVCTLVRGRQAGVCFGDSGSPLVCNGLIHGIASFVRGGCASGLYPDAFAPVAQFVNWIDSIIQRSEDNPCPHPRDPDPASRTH
# Procedure: The assay was conducted to evaluate the elastase enzyme inhibition activity of compositions comprising eriodictyol. Neutrophil infiltration and neutrophil elastase are both increased in the skin in response to UV stress. […] Therefore, inhibition of this enzyme, particularly in combination with antioxidant activity, is effective in delaying wrinkle development and aiding in maintaining skin integrity. This assay is measures release of 4-nitroaniline from an Me-Suc-[…] by human neutrophil elastase and can be quantified at 405 nm by comparing to solvent control.
# [6] = Glycation inhibition assay; type: biochemical; settings: for % Enzyme Inhibition: glycation
# Procedure: The assay was conducted to evaluate the glycation inhibition activity of compositions comprising eriodictyol. Nonenzymatic glycation can occur when glucose reacts with proteins, forming a Schiff base intermediate that subsequently undergoes Amadori rearrangement to form glycosylated proteins, when they react with skin proteins to form Advanced Glycation End products (AGE). AGE formation can result in loss of skin elasticity and impaired cellular function. The glycation inhibition ability of a compound is measured by change in fluorescence at excitation/emission of 360 nm/420 nm relative to solvent control.
# [7] = tested on: ALDH1A3 (aldehyde dehydrogenase 1 family member A3); assay: Gene modulation; type: cell-based
# Description: (§1) Table 9, provided below, incorporates the gene modulation data for formulations comprising eriodictyol.
# [8] = tested on: ATP12A (ATPase H+/K+ transporting non-gastric alpha2 subunit); assay: Gene modulation; type: cell-based
# Description: as §1
# FN1 (fibronectin 1) = assay: Gene modulation; type: cell-based
# Description: as §1
# FST (follistatin) = assay: Gene modulation; type: cell-based
# Description: as §1
# IL23A (Interleukin 23) = assay: Gene modulation; type: cell-based
# Description: as §1
# IL24 (Interleukin 24) = assay: Gene modulation; type: cell-based
# Description: as §1
# IL6 (Interleukin 6) = assay: Gene modulation; type: cell-based
# Description: as §1
# [9] = tested on: KCTD4 (potassium channel tetramerization domain containing 4); assay: Gene modulation; type: cell-based
# Description: as §1
# [10] = tested on: MKI67 (marker of proliferation Ki-67); assay: Gene modulation; type: cell-based
# Description: as §1
# [11] = tested on: MMP1 (matrix metallopeptidase 1); assay: Gene modulation; type: cell-based
# Description: as §1
# [12] = tested on: MMP10 (matrix metallopeptidase 10); assay: Gene modulation; type: cell-based
# Description: as §1
# [13] = tested on: MMP3 (Matrix Metallopeptidase 3); assay: Gene modulation; type: cell-based
# Description: as §1
# [14] = tested on: MMP9 (Matrix Metallopeptidase 9); assay: Gene modulation; type: cell-based
# Description: as §1
# [15] = tested on: PPFIA4 (PTPRF interacting protein alpha 4); assay: Gene modulation; type: cell-based
# Description: as §1
# [16] = tested on: SLC13A5 (Solute carrier family 13 member 5); assay: Gene modulation; type: cell-based
# Description: as §1
# [17] = tested on: TFPI2 (tissue factor pathway inhibitor 2); assay: Gene modulation; type: cell-based
# Description: as §1
# THBS1 (thrombospondin 1) = assay: Gene modulation; type: cell-based
# Description: as §1
# [18] = tested on: TNF (Tumor Necrosis Factor); assay: Gene modulation; type: cell-based
# Description: as §1
# [19] = tested on: TOP2A (DNA topoisomerase II alpha); assay: Gene modulation; type: cell-based
# Description: as §1
# macrophage cells = settings: cited from earlier work
# ICR mice = settings: mouse skin; Park et al. 2013; cited from earlier work
# TRPV1 receptors = TRPV1 receptors (Homo sapiens, UniProt Q8NER1); settings: acting on TRPV1 receptors; Deng et al. 2020; cited from earlier work
# Sequence of TRPV1 receptors (Q8NER1 whole entry): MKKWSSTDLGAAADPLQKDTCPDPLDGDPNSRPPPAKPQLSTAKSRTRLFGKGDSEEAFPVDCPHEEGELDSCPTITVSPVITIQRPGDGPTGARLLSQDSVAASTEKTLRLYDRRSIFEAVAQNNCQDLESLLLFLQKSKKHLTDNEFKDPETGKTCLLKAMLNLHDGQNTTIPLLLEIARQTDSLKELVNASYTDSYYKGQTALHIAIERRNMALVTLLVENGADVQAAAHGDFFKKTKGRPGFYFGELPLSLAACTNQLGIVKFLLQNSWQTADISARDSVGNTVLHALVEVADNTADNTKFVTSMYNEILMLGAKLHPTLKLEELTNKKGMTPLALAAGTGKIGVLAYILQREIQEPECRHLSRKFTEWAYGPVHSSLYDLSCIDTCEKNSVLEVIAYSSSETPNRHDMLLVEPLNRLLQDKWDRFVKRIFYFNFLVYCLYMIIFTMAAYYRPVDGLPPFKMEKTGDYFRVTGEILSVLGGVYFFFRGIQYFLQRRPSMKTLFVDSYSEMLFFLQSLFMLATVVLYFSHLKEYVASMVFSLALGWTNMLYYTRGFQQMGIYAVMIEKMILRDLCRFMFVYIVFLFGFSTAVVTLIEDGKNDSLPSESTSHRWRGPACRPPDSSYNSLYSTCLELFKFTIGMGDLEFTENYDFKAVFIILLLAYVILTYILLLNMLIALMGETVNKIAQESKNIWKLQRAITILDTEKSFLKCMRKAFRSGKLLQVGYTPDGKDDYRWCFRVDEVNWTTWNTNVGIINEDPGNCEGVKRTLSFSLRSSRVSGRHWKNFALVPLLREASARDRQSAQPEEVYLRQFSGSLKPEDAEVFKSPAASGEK
# Nrf2/HO-1 pathway = settings: mice, acting on the Nrf2/HO-1 pathway; Li et al. 2022; cited from earlier work
# melanoma cells = settings: cited from earlier work
# tyrosinase = tyrosinase (Mus musculus, UniProt P11344); settings: cited from earlier work
# Sequence of tyrosinase (P11344 19-533): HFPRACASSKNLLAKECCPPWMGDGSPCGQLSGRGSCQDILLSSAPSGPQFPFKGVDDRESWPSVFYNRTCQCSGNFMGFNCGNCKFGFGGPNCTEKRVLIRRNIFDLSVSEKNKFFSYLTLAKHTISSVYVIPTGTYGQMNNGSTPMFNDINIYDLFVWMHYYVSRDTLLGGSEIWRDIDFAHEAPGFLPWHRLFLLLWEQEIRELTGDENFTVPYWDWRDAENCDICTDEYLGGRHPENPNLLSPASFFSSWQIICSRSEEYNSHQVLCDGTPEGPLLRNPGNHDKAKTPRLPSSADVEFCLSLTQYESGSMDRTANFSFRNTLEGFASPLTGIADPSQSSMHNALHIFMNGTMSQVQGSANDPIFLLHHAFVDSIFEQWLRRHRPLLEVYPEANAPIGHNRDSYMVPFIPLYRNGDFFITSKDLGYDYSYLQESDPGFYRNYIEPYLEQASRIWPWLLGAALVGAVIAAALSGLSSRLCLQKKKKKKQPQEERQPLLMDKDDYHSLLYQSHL
# Keratinocytes = settings: skin; cited from earlier work
smiles,measurement,setting,value
O=C1C[C@@H](c2ccc(O)c(O)c2)Oc2cc(O)cc(O)c21 [eriodictyol],Solubility (% w/w),[1]; in Caprylic/Capric Triglyceride,only minimally soluble; also recorded: Not soluble
same,Solubility (% w/w),[1]; in Helianthus Annuus (Sunflower) Seed Oil,insoluble; also recorded: Not soluble
same,Solubility (% w/w),[1]; in Pentylene Glycol,only minimally soluble; also recorded: Not soluble
same,Solubility,[1]; in oil,poorly soluble or insoluble
same,Solubility,[1]; in water,poorly soluble or insoluble
same,30 day % remaining,[2]; 4 C.,104.66%
same,90 day % remaining,[2]; 4 C.,97.15%
same,30 day % remaining,[2]; 25 C.,100.78%
same,90 day % remaining,[2]; 25 C.,91.72%
same,180 day % remaining,[2]; 25 C.,90.30%
same,30 day % remaining,[2]; 40 C.,93.53%
same,90 day % remaining,[2]; 40 C.,98.06%
same,30 day % remaining,[2]; 50 C.,95.73%
same,% Radical Inhibition,[3]; eriodictyol 0.00016 % w/w,11.00%
same,% Radical Inhibition,[3]; eriodictyol 0.0008 % w/w,58.72%
same,% Radical Inhibition,[3]; eriodictyol 0.004 % w/w,92.97%
same,IC50 antioxidant activity,"[3]; aqueous solvent system, calculated",0.00062 % w/w
same,Lowest concentration demonstrating antioxidant activity,[3]; aqueous systems,0.00016 % w/w
same,% Radical Inhibition,[4]; eriodictyol 0.00007 % w/w,21.22%
same,% Radical Inhibition,[4]; eriodictyol 0.00046 % w/w,81.45%
same,% Radical Inhibition,[4]; eriodictyol 0.00278 % w/w,81.95%
same,IC50 antioxidant activity,"[4]; organic solvent system, calculated",0.0002 % w/w
same,Lowest concentration demonstrating antioxidant activity,[4]; organic solvent systems,0.00007 % w/w
same,Lowest concentration inhibiting elastase enzyme activity,[5],0.008 % w/w
same,IC50 elastase enzyme inhibition,[5]; calculated,0.107 % w/w
same,inhibition at 0.008 % strength,"[5]; elastase, eriodictyol 0.008 % w/w",17.6%
same,inhibition at 0.04 % strength,"[5]; elastase, eriodictyol 0.04 % w/w",23.1%
same,inhibition at 0.2 % strength,"[5]; elastase, eriodictyol 0.2 % w/w",58.1%
same,Lowest concentration inhibiting glycation,[6],0.002 % w/w
same,IC50 glycation inhibition,[6]; calculated,0.0088 % w/w
same,% Enzyme Inhibition,[6]; eriodictyol 0.002 % w/w,38.43%
same,% Enzyme Inhibition,[6]; eriodictyol 0.007 % w/w,86.18%
same,% Enzyme Inhibition,[6]; eriodictyol 0.022 % w/w,90.26%
same,Treatment (gene expression level),[7]; ALDH1A3,168.0
same,Fold Change,"[7]; ALDH1A3, treatment vs control",−9.8
same,Treatment (gene expression level),[8],76.4
same,Fold Change,[8]; treatment vs control,−11.3
same,Treatment (gene expression level),FN1 (fibronectin 1); FN1,146.9
same,Fold Change,"FN1 (fibronectin 1); FN1, treatment vs control",−12.1
same,Treatment (gene expression level),FST (follistatin),96.4
same,Fold Change,FST (follistatin); treatment vs control,−9.8
same,Treatment (gene expression level),IL23A (Interleukin 23),5.9
same,Fold Change,IL23A (Interleukin 23); treatment vs control,−6.1
same,Treatment (gene expression level),IL24 (Interleukin 24); IL24,1.2
same,Fold Change,"IL24 (Interleukin 24); IL24, treatment vs control",−73.5
same,Treatment (gene expression level),IL6 (Interleukin 6); IL6,1.2
same,Fold Change,"IL6 (Interleukin 6); IL6, treatment vs control",−19.7
same,Treatment (gene expression level),[9]; KCTD4,36.4
same,Fold Change,"[9]; KCTD4, treatment vs control",−14.9
same,Treatment (gene expression level),[10]; MKI67,78.7
same,Fold Change,"[10]; MKI67, treatment vs control",−10.6
same,Treatment (gene expression level),[11]; MMP1,972.9
same,Fold Change,"[11]; MMP1, treatment vs control",−11.3
same,Treatment (gene expression level),[12]; MMP10,106.9
same,Fold Change,"[12]; MMP10, treatment vs control",−24.3
same,Treatment (gene expression level),[13]; MMP3,8.2
same,Fold Change,"[13]; MMP3, treatment vs control",−48.5
same,Treatment (gene expression level),[14]; MMP9,527.6
same,Fold Change,"[14]; MMP9, treatment vs control",−8.6
same,Treatment (gene expression level),[15]; PPFIA4,628.6
same,Fold Change,"[15]; PPFIA4, treatment vs control",27.9
same,Treatment (gene expression level),[16]; SLC13A5,5.9
same,Fold Change,"[16]; SLC13A5, treatment vs control",−13.9
same,Treatment (gene expression level),[17]; TFPI2,34.1
same,Fold Change,"[17]; TFPI2, treatment vs control",−17.1
same,Treatment (gene expression level),THBS1 (thrombospondin 1); THBS1,344.3
same,Fold Change,"THBS1 (thrombospondin 1); THBS1, treatment vs control",−16.0
same,Treatment (gene expression level),[18],0.0
same,Fold Change,[18]; treatment vs control,−256.0
same,Treatment (gene expression level),[19],37.6
same,Fold Change,[19]; treatment vs control,−18.4
same,Anti-inflammatory activity: inflammatory markers,macrophage cells,decrease inflammatory markers
same,Symptoms of atopic dermatitis,ICR mice,alleviating symptoms of atopic dermatitis
same,Neuroinflammation and hypererythema,TRPV1 receptors,reduces neuroinflammation and relieves hypererythema
same,Cognitive decline,Nrf2/HO-1 pathway,decreases cognitive decline
same,Melanogenesis,melanoma cells,decreases melanogenesis
same,Tyrosinase inhibition,tyrosinase,inhibiting tyrosinase
same,Protection from UVA-induced photodamage and apoptosis,Keratinocytes,protecting skin from UVA-induced photodamage and apoptosis
